The source of these data is ChEMBL document CHEMBL3044985, “Novel antitubercular diallyl/dibenzylthiosemicarbazones endowed with high activity toward multi-drug-resistant tuberculosis” (Med Chem Res, 2012).

In brackets after ≈: the same amount, converted by molar mass.

One may read the MIC as the lowest concentration that inhibits growth of the organism.

Data set [1] concerns Mycobacterium tuberculosis. Kind of data set: Antitubercular activity against multidrug-resistant Mycobacterium tuberculosis by NCCLS agar dilution method. Type of data set: functional. For orientation: Agar dilution tests growth on a series of plates holding different concentrations.
Data set [2] can be described thus: Selectivity index, ratio of CC50 for african green monkey Vero cells to MIC for multidrug-resistant Mycobacterium tuberculosis. Type of data set: toxicity, cell-based. As to conditions: read-out: Selectivity Index.
The test system of data set [3] is Mycobacterium tuberculosis. As to the kind of experiment: Ratio of ofloxacin MIC to compound MIC for multidrug-resistant Mycobacterium tuberculosis. Type of data set: functional.
Data set [4] deals with Mycobacterium tuberculosis. As to the kind of experiment: Ratio of rifampicin MIC to compound MIC for multidrug-resistant Mycobacterium tuberculosis. The format is functional.
Data set [5] concerns Mycobacterium tuberculosis. As to the kind of experiment: Ratio of ethambutol MIC to compound MIC for multidrug-resistant Mycobacterium tuberculosis. Type of data set: functional.
Data set [6] concerns Mycobacterium tuberculosis. Kind of data set: Ratio of isoniazid MIC to compound MIC for multidrug-resistant Mycobacterium tuberculosis. The format is functional.

In turn, `C=CCN(CC=C)C(=S)N/N=C\c1ccc([N+](=O)[O-])o1` had an MIC in data set [1] of 0.67 µM (≈ 0.197 µg/mL).
Still for that read-out and setting: next, `C/C(=N/NC(=S)N(Cc1ccccc1)Cc1ccccc1)c1ccc(O)cc1`: 8.03 µM (≈ 3.13 µg/mL); `C/C(=N/NC(=S)N(Cc1ccccc1)Cc1ccccc1)c1ccc(N)cc1`: 8.04 µM (≈ 3.12 µg/mL).
On the same count and under the same terms, next, `C=CCN(CC=C)C(=S)N/N=C\c1ccc(Cl)cc1`: 2.65 µM (≈ 0.779 µg/mL).
With `O=[N+]([O-])c1ccc(/C=N\NC(=S)N(Cc2ccccc2)Cc2ccccc2)o1`, the selectivity ratio in data set [2] was found to be 1320. Also, the Ratio in data set [3] was 288; in data set [4], 31; in data set [5], 314; in data set [6], 379. For the same molecule, the MIC in data set [1] amounted to 0.12 µM (≈ 0.0473 µg/mL).
`C=CCN(CC=C)C(=S)N/N=C(/C)c1ccccc1` came in with an MIC in data set [1] of 11.4 µM (≈ 3.13 µg/mL).
Still for that read-out and setting: next, `O=[N+]([O-])c1ccccc1/C=N\NC(=S)N(Cc1ccccc1)Cc1ccccc1`: 0.98 µM (≈ 0.396 µg/mL); `C/C(=N/NC(=S)N(Cc1ccccc1)Cc1ccccc1)c1ccc(F)cc1`: 3.98 µM (≈ 1.56 µg/mL).
The same measure, in the same setting: next, `Cc1ccccc1/C=N\NC(=S)N(Cc1ccccc1)Cc1ccccc1`: 4.71 µM (≈ 1.76 µg/mL).
`C=CCN(CC=C)C(=S)N/N=C\c1ccccc1[N+](=O)[O-]`: in data set [1], the MIC turned out to be 2.56 µM (≈ 0.779 µg/mL).
Same read-out and setting: next, `C/C(=N/NC(=S)N(Cc1ccccc1)Cc1ccccc1)c1ccc([N+](=O)[O-])cc1`: 1.86 µM (≈ 0.778 µg/mL); `NNC(=O)c1ccncc1` [ISONIAZID]: 45.6 µM (≈ 6.25 µg/mL).
In turn, `C=CCN(CC=C)C(=S)N/N=C(/C)c1ccc(O)cc1` yielded an MIC in data set [1] of 10.8 µM (≈ 3.13 µg/mL).
In turn, `C=CCN(CC=C)C(=S)N/N=C(/C)c1ccc([N+](=O)[O-])cc1` showed a minimal inhibitory concentration (MIC) in data set [1] of 9.83 µM (≈ 3.13 µg/mL).
Same read-out and setting: next, `S=C(N/N=C\c1ccc(Cl)cc1)N(Cc1ccccc1)Cc1ccccc1`: 1.98 µM (≈ 0.78 µg/mL).
Still for that read-out and setting: next, `S=C(NN=C(c1ccccc1)c1ccccc1)N(Cc1ccccc1)Cc1ccccc1`: 1.79 µM (≈ 0.78 µg/mL).
As for `C/C(=N/NC(=S)N(Cc1ccccc1)Cc1ccccc1)c1ccccc1`, the MIC in data set [1] came out at 4.17 µM (≈ 1.56 µg/mL).
Still for that read-out and setting: next, `O=[N+]([O-])c1ccc(/C=N\NC(=S)N(Cc2ccccc2)Cc2ccccc2)cc1`: 0.98 µM (≈ 0.396 µg/mL).
The same measure, in the same setting: next, `C=CCN(CC=C)C(=S)N/N=C(/C)c1ccc(F)cc1`: 5.35 µM (≈ 1.56 µg/mL).
The same measure, in the same setting: next, `C=CCN(CC=C)C(=S)N/N=C\c1ccccc1C`: 5.7 µM (≈ 1.56 µg/mL); `C=CCN(CC=C)C(=S)N/N=C\c1ccc([N+](=O)[O-])cc1`: 1.31 µM (≈ 0.399 µg/mL).
`C=CCN(CC=C)C(=S)N/N=C(/C)c1ccccc1O` displayed an MIC in data set [1] of 10.8 µM (≈ 3.13 µg/mL).
Same read-out and setting: next, `Oc1ccccc1/C=N\NC(=S)N(Cc1ccccc1)Cc1ccccc1`: 4.16 µM (≈ 1.56 µg/mL); `C/C(=N/NC(=S)N(Cc1ccccc1)Cc1ccccc1)c1ccccc1O`: 8.03 µM (≈ 3.13 µg/mL).
`CO[C@H]1/C=C/O[C@@]2(C)Oc3c(C)c(O)c4c(O)c(c(/C=N/N5CCN(C)CC5)c(O)c4c3C2=O)NC(=O)/C(C)=C\C=C\[C@H](C)[C@H](O)[C@@H](C)[C@@H](O)[C@@H](C)[C@H](OC(C)=O)[C@@H]1C` [RIFAMPIN] gave a minimal inhibitory concentration (MIC) in data set [1] of 3.79 µM (≈ 3.12 µg/mL).
Take `C=CCN(CC=C)C(=S)NN=C(c1ccccc1)c1ccccc1`: in data set [1], the lowest concentration to inhibit growth (MIC) was 2.32 µM (≈ 0.778 µg/mL).
The molecule `CC[C@@H](CO)NCCN[C@@H](CC)CO` [ETHAMBUTOL] gave an MIC in data set [1] of 37.7 µM (≈ 7.7 µg/mL).
`S=C(N/N=C\c1ccccc1)N(Cc1ccccc1)Cc1ccccc1` returned an MIC in data set [1] of 8.71 µM (≈ 3.13 µg/mL).
